Assay results as given in US8039670B2, “Analogs of alpha galactosyceramide and uses thereof” (Ludwig Institute for Cancer Research, priority 2005, dated 2011).

Columns and labels:
DC = test: Viability of analog-pulsed DC co-cultured with iNKT cells (propidium iodide); type: cell-based, human; settings: at concentration of maximal DC maturation
Protocol: (§1) Different analogs of α-GalCer as indicated or LPS were added to co-cultures of human DC and iNKT cells. (A) Maturation of the DC was assessed after 40 h, gating on CD11c positive cells. Histograms indicate the CD83 and CD86 profiles of DC from different treatments; the percentages indicate the percentage of CD83hi mature DC and the numbers in parenthesis, the mean fluorescence intensity of the population contained within the labeled gate. DC and iNKT cells were co-cultured in the presence of different analogs of α-GalCer for 24 hours. Supernatants were analyzed using ELISA for the presence of (B) IL-12p40 released by the DC and (C) IFN-γ from the iNKT cells. All the compounds tested induced weaker but significant cytokine production than α-GalCer, with the exception of arabinitolceramide. (D) Titration of α-GalCer, OCH or threitolceramide on DCs and co-culture with iNKT cells induces DC maturation in vitro. Cells were co-cultured in the presence of the indicated concentration of analog and the percentages of DC with increased CD83/CD80 are shown. […] Viability of α-GalCer or analog-pulsed DC was assessed after 40 h co-culture in the presence of iNKT cells by flow cytometry. Cells were stained with propidium iodide and the percentage of live CD11c gated cells remaining in the culture are shown.
(§2) To compare the functions of high affinity α-GalCer, intermediate affinity threitolceramide with the known, low affinity analog OCH, the three compounds were titrated onto DC and used to present to iNKT cells. Maturation of DC and DC viability were examined after 48 h.

IL-12 p70 protein = test: Example F: IL-12 p70 in tail blood six hours after injection (ELISA); type: in vivo; settings: 1 μg or 10 μg
Protocol: These experiments were performed to determine the effect of selected compounds of the invention in stimulating the production of IL-12 production in subject animals. The animals received 1 μg or 10 μg of threitol, glycerol or Gal-Cer. One group of animals also received 50 μg of MPL. Six hours following injection, tail blood samples were collected and the IL-12 p70 protein was determined using an ELISA all in accordance with standard procedures.

[1] = Viability of analog-pulsed DC co-cultured with iNKT cells (propidium iodide); type: cell-based, human; settings: human; at concentration of maximal DC maturation; read-out: DC still viable
Protocol: as §1, §2

OVA-specific IgGs = test: OVA-specific IgG in serum after co-administration with OVA (ELISA, FIG. 7B); type: in vivo, mice; settings: 1 μg with 400 μg OVA, bled 11-14d
Protocol: (A) C57BL/6 or iNKT^−/− mice were injected i.v. with 1 μg of vehicle, α-GalCer, analog or 25 μg MPL. Twenty hours after injection splenocytes were stained with antibodies against B220 and CD86 and analyzed by flow cytometry. Maturation was assessed by the upregulation of CD86 at the cell surface, gating on B cells (B220^+). Mean fluorescence intensity for each histogram is indicated. […] Mice were bled 11-14d after administration and the serum tested by ELISA for antibodies. Briefly, ELISA plates were coated with 10 μg/ml OVA and then serial dilutions of sera added and incubated overnight at 4° C. before detecting with an HRP-conjugated sheep anti-mouse IgG.
Non-glycolipid analogs of α-GalCer stimulate B cell maturation in the presence of iNKT cells in vivo and subsequent antibody production. (A) C57BL/6 or iNKT^−/− mice were injected i.v. with 1 μg of vehicle, α-GalCer, analog or 25 μg MPL. Twenty hours after injection splenocytes were stained with antibodies against B220 and CD86 and analyzed by flow cytometry. Maturation was assessed by the upregulation of CD86 at the cell surface, gating on B cells (B220^+) (FIG. 7 A). Mean fluorescence intensity for each histogram is indicated. […] Mice were bled 11-14d after administration and the serum tested by ELISA for antibodies (FIG. 7 B).

iNKT cell clone = test: Cytokine release from iNKT cell clone stimulated with analog-pulsed C1R-human CD1d cells; type: cell-based
Protocol: FIG. 9 Inositol-based α-GalCer derivatives are functional in vitro. Human monocyte-derived DC were pulsed with 150 ng of different inositol analogs and co-cultured with iNKT cells for 24 h. […] Numbers indicate the mean fluorescence intensity of the histogram gated on CD11c^+ cells. 6-Deoxy and 6-Sulfono-myo-inositolceramide induce significant (B) IL-12p40 and (C) IFN-γ production by DC and iNKT cells respectively in the supernatants of co-cultured DC and iNKT cells. […] Release of (D) IFN-g and (E) IL-4 from iNKT cells after 24 h in culture with C1R-human CD1d cells pulsed with α-GalCer, 6-Deoxy- or 6-Sulfono-myo-inositolceramide.
The three inositol compounds were titrated on C1R cells expressing human CD1d and used to stimulate an iNKT cell clone.

human CD1d = human CD1d (Homo sapiens, UniProt P15813); settings: acyl and sphingosine chains in A′ and C′ pockets; cited from earlier work
Sequence of human CD1d (P15813 20-301 limits assumed): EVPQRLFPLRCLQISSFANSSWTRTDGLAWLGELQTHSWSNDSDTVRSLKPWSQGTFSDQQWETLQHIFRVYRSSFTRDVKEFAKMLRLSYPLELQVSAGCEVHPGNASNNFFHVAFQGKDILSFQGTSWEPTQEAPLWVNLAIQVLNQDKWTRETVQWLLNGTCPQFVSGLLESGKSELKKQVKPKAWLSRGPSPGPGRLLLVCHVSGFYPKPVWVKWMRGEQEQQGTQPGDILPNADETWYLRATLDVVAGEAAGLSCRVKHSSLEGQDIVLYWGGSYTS
Sequence of human CD1d (P61769 21-119 partner): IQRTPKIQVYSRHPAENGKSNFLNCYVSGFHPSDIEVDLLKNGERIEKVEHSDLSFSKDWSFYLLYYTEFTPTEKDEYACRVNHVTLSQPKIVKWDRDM

NKT cells = settings: cancer patients, after treatment; cited from earlier work

CCCCCCCCCCCCCCCCCCCCCCCCCC(=O)N[C@@H](COC[C@H](O)[C@@H](O)CO)[C@H](O)[C@H](O)CCCCCCCCCCCCCC [Compound 3, Threitol Ceramide]
DC viability (propidium iodide negative) compared with α-GalCer (DC): significantly greater proportion of DC were propidium iodide negative | IL-12/p70 secretion (IL-12 p70 protein): Dose dependent increases in IL-12/p70 secretion

CCCCCCCCCCCCCCCCCCCCCCCCCC(=O)N[C@@H](CO[C@H]1OC(CO)[C@H](O)C(O)C1O)[C@H](O)[C@H](O)CCCCCCCCCCCCCC (stereo partly drawn) [α-GalCer, α galactosylceramide, reference compound]
viability at 48 h, 0.8 ng/ml [1]: 10% | OVA-specific IgGs (OVA-specific IgGs): induces significant OVA-specific IgGs | concentration at which IFN-γ and IL-4 approach a plateau (iNKT cell clone): 200 ng/mL | shape complementarity (Sc) (human CD1d): 0.61 | time until NKT cells in peripheral blood fell to undetectable levels (NKT cells): ≤ 24 h
